The text below walks through data of article PMC5504357, “Antifungal Potential of Copper(II), Manganese(II) and Silver(I) 1,10-Phenanthroline Chelates Against Multidrug-Resistant Fungal Species Forming the Candida haemulonii Complex: Impact on the Planktonic and Biofilm Lifestyles” (Frontiers in Microbiology, 2017).

The test system of the assay is Candida haemulonii. Description: Biofilm-growing cells, XTT assay, bMIC. Type of assay: cell-based. The conditions noted are these: for GM-bMIC: geometric mean, C. haemulonii isolates, values marked * do not include LIP Ch4 (>512); for bMIC: mature biofilm, 48 h, 50% inhibition of metabolic activity. In outline:
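Activity against established biofilms: 48 h growth at 37°C in Sabouraud-dextrose broth from 10^6 yeast cells, three PBS washes, then 48 h with compounds. The endpoint was XTT-formazan formation, scored as the concentration halving metabolic activity.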
A general note: Tetrazolium assays rely on reduction of a dye to a coloured formazan, in cell work by metabolically active cells.

`CCO.O=C([O-])COCCOCCOCC(=O)[O-].[Ag+].[Ag+].c1cnc2c(c1)ccc1cccnc12.c1cnc2c(c1)ccc1cccnc12.c1cnc2c(c1)ccc1cccnc12.c1cnc2c(c1)ccc1cccnc12` [compound 16, [Ag2(3,6,9-tdda)(phen)4].EtOH] returned a GM-bMIC of 16 mg/L. For the setting “isolate LIP Ch4”, this molecule yielded a bMIC of 32 mg/L. The molecule also registered a bMIC (isolate LIP Ch7) of 16 mg/L. Further, where the note is “isolate LIP Ch14”, the bMIC stood at 8 mg/L.

“{[Cu(3,6,9-tdda)(phen)2].3H2O.EtOH}n [compound 7]” showed a GM-bMIC of 8 mg/L. Also, the bMIC (isolate LIP Ch4) was found to be 32 mg/L. Moreover, where the note is “isolate LIP Ch7”, the bMIC amounted to 4 mg/L. Also, the bMIC (isolate LIP Ch14) was 4 mg/L.
